# Patent US8658131B2, “Compounds comprising 4-benzoylpiperidine as a sigma-1-selective ligand” (Washington University, priority 2010, dated 2014)
# Tests used:
# [1] = Biodistribution of [11C]14e in mice; assay type: in vivo
# Procedure: (§1) Radiosynthesis of [^11C] […] Tissue samples were taken and converted to % ID/g for each organ. Ex vivo autoradiography studies were also conducted in mice at 30 min post-injection of the radiotracer. A microPET imaging study was also performed on a male cynomolgus monkey.
# [2] = biological target: T1, σ1 receptors (Mus musculus, UniProt O55242); assay: Ex vivo autoradiography of [11C]14e in mice; conditions: 30 min post-injection
# T1 construct: Ex vivo autoradiography studies were also conducted in mice; from tissue; host or cells: mouse brain (living animal, ex vivo autoradiography)
# T1 sequence (O55242 whole entry): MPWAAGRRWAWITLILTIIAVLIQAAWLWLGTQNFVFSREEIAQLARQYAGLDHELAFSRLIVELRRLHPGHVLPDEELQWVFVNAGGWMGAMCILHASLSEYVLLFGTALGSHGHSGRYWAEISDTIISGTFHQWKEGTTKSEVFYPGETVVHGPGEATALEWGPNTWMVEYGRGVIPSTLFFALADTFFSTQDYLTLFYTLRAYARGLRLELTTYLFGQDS
# Procedure: as §1
smiles,measurement,setting,value
"[11CH3]Oc1ccc(C(=O)C2CCN([C@@H]3CCN(Cc4ccc(F)cc4)C[C@H]3O)CC2)cc1 [[^11C]14e, ((3′R,4′R)-1′-(4-fluorobenzyl)-3′-hydroxy-1,4′-bipiperidin-4-yl)(4-[^11C]methoxyphenyl)methanone]","regional brain uptake, cerebellum",[1]; 5 min post-injection,6.34±0.05 % ID/g
same,"regional brain uptake, cortex",[1]; 5 min post-injection,6.69±0.72 % ID/g
same,"regional brain uptake, hippocampus",[1]; 5 min post-injection,5.41±0.30 % ID/g
same,"regional brain uptake, striatum",[1]; 5 min post-injection,6.63±0.56 % ID/g
same,clearance from brain,"[1]; high between 5 and 30 min, washed out between 30 and 60 min",suitable clearance from brain
same,distribution in brain by autoradiography,[2],consistent with the distribution of σ1 receptors in brain
